Measurements reported in publication PMC7726145, “Fine-tuning of lysine side chain modulates the activity of histone lysine methyltransferases” (Scientific Reports, 2020).
“Also recorded” adds a separate entry of the source.

Legend:
Format in all cases: biochemical
SETD7 [1] = molecular target: T1, SETD7 (Homo sapiens, UniProt Q8WTS6); assay: MALDI-TOF MS methylation assay with SETD7
T1 construct: SETD7 residues 1–366; His6 (N); made in house; host or cells: Escherichia coli Rosetta BL21 (DE3)pLysS
T1 sequence (Q8WTS6 1-366): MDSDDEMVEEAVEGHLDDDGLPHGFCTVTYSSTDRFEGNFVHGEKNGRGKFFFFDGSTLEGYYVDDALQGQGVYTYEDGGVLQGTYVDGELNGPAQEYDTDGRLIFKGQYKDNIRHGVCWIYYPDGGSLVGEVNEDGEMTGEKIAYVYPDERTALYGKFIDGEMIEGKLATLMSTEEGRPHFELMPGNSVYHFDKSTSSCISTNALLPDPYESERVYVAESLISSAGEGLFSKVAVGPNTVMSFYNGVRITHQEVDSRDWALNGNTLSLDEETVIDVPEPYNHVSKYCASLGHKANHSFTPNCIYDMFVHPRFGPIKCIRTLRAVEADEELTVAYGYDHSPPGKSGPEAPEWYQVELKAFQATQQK
Method: Histone peptides bearing the lysine analogues KO and KN were examined as substrates for the recombinantly expressed human KMTs using MALDI-TOF MS assays as a direct method to monitor histone methylation. We tested whether KO and KN can be methylated by di- and trimethyltransferases GLP and G9a, and monomethyltransferases SETD7 and SETD8. Samples containing the human KMT enzyme (2 µM), histone peptide (100 µM), and SAM (500 µM with GLP and G9a; 200 µM with SETD8 and SETD7) in Tris buffer (50 mM, pH 8.0) were incubated for 1 h at 37 °C. Following established enzymatic conditions[17]–[19],[21],[22], all lysine-containing histone peptides were efficiently methylated by the four KMTs (Fig. 5a,d,g,j, respectively). […] In the G9a assay, traces (< 5%) of the dimethylated species H3KO9me2 were also observed. […] We further analyzed the product distribution of these two peptide substrates with G9a and GLP throughout the time course of methylation.
Red spectra show 1 h reactions at 37 °C including KMTs (2 µM), histone peptide (100 µM) and SAM (500 µM for GLP/G9a and 200 µM for SETD8/SED7) and black spectra the no-enzyme controls.
The lack of methylation of these two analogues with SETD7 indicated a selectivity between KMTs.
(§1) Human KMTs enzymes were expressed and purified as previously described[36]–[38]. The methyltransferase plasmid (SETD8 residues 186–352, SETD7 residues 1–366, GLP residues 951–1235, G9a residues 913–1193) transformed into Escherichia coli Rosetta BL21 (DE3)pLysS cells. Cultures were grown at 37 °C in LB media containing kanamycin and chloramphenicol. Cells were grown to an OD600 of 0.5–0.6 (approximately 2.5–3 h), at which point they induced by isopropyl β-D-1-thiogalactopyranoside (IPTG) and they were transferred to a temperature of 16 °C overnight. After letting the cells grow at this temperature, they were then harvested and lysed by sonication. The lysate was centrifuged at high-speed to remove unbroken cells. The supernatant was then centrifuged to further clean the lysate. Purification of the N-terminally his6-tagged KMTs was performed using Ni–NTA affinity chromatography column, which was prewashed with lysis buffer. Target KMT enzyme was then eluted using a linear gradient concentration of imidazole. The elute was then concentrated with centrifugal concentrators (Millipore). All KMT enzymes were further purified by gel filtration on a Superdex 75 column (GE Healthcare) on an AKTA system. Purified proteins were concentrated employing Amicon Ultra Centrifugal Filter Units (Millipore) with suitable molecular weight cutoffs. Proteins concentrations were determined using the Nanodrop DeNovix DS-11 spectrophotometer and the purity was monitored by SDS-PAGE on a 4–15% gradient polyacrylamide gel (Bio-Rad).
Histone methyltransferase assay was carried out as described in 30 µL final total volume[17]–[19],[21],[22]. In brief, purified KMTs enzymes (2 µM of each enzyme per each reaction) were incubated with 100 µM of purified histone peptides in the methyltransferase assay buffer Tris–HCl (pH 8.0) and methyl donor SAM (500 µM with GLP and G9a; 200 µM with SETD8 and SETD7) for 1 h at 37 °C. 3 µL of reaction mixture was quenched with an equal amount of MeOH (1:1 ratio). Then, 3 µL of this mixture was added to an equal amount volume of a standard α-cyano-4-hydroxycinnamic acid matrix solution for spotting on a MALDI plate (Stainless ground steel 96/12 Bruker-Daltonik, Bremen-Germany). The mass spectra of peptides were analyzed by MALDI-TOF MS. […]

SETD7 [2] = molecular target: T1, SETD7; assay: Inhibition of SETD7-catalyzed methylation of 14-mer H3K4; details: for IC50: SETD7 200 nM, 14-mer H3K4 10 µM, inhibitor 1-200 µM, 4 repeats (dose-response of H3KO4)
Method: Residual activity assays monitoring the KMT-catalyzed methylation of the histone peptides were then carried out, aimed at providing competitive data of these two substrates as compared to the 14-mer H3K9 peptide for the active site of G9a/GLP, and to determine whether the two lysine analogues inhibit G9a- and GLP-catalyzed methylation of H3K9.
as §1
Supplementary Figure 19. […] Error bars represent the standard deviation from 4 repeats.

SETD8 = molecular target: T2, SETD8 (Homo sapiens, UniProt Q9NQR1); assay: SETD8 kinetics by MALDI-TOF MS enzymatic assay
T2 construct: SETD8 residues 186–352; His6 (N); made in house; host or cells: Escherichia coli Rosetta BL21 (DE3)pLysS
T2 sequence (Q9NQR1 186-352 isoform Q9NQR1-2): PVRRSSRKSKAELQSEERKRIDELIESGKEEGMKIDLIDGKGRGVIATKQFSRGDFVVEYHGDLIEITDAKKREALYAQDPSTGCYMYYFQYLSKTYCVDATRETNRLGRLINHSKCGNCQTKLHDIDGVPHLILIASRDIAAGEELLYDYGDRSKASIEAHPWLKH
Method: To determine the substrate specificity of SETD8 towards the two histone peptides bearing the unnatural lysine analogues KO and KN, a kinetic investigation was carried out employing a MALDI-TOF MS enzymatic assay[17],[18],[21]. KMT-catalyzed methylation of the oxalysine- and azalysine-containing histone peptides was characterized by slower substrate conversion rates (kcat) compared to their respective natural sequences, a result that we attribute to their poorer nucleophilic character due to the electron-withdrawing properties of the O and NH moieties. Furthermore, a highly hydrophobic channel of the methyltransferases is poorly tailored for significant electrostatic changes in the hydrophobic nature of the lysine side chain, likely leading to a larger penalty for desolvation of γ-azalysine and γ-oxalysine. Combined with the altered Km values for H4KO20 and H4KN20, this translated into a generally slightly worse catalytic efficiency for these two lysine analogues.
as §1
Kinetics studies were performed as described[17],[18],[21]. A solution of histone peptide (0–300 μM), was added to a solution of SAM (116 μM) in assay buffer (50 mM Tris, pH 8.0) at room temperature (final volume of 100 μL). […]

[3] = SETD7 2 µM, peptide 100 µM, SAM 200 µM, Tris 50 mM, pH 8.0, 1 h at 37 °C
[4] = SETD8 2 µM, peptide 0–300 μM, SAM 116 μM, 50 mM Tris, pH 8.0, room temperature, 10 min, MALDI-TOF MS, value ± SD, replicates

Compound | methylation with SETD7 (SETD7 [1]; [3]) | monomethylated species (traces) with SETD7 (SETD7 [1]; [3]) [%] | methylation with SETD7 at high concentration, 1 h (SETD7 [1]; SETD7 10 µM, SAM 1 mM, 37 °C, 1 h) | methylation with SETD7 at high concentration, 3 h (SETD7 [1]; SETD7 10 µM, SAM 1 mM, 37 °C, 3 h) | inhibition of SETD7 in words (SETD7 [2]; 14-mer H3K4 substrate) | IC50 (SETD7 [2]) [µM] | kcat/Km (SETD8; SETD8 2 µM, peptide 0–300 μM, SAM 116 μM, 50 mM Tris, pH 8.0, room temperature, 10 min, MALDI-TOF MS) [M⁻¹ s⁻¹] | Km (SETD8; [4]) [µM] | kcat (SETD8; [4]) [s⁻¹] | order in which SETD8 tolerates modifications at the γ position (kinetics) (SETD8; comparison of kinetics data including H4KC20 of ref 18)
C[C@H](N)C(=O)N[C@@H](CCCNC(=N)N)C(=O)N[C@H](C(=O)N[C@@H](CNCCN)C(=O)N[C@@H](CCC(N)=O)C(=O)N[C@H](C(=O)N[C@@H](C)C(=O)N[C@@H](CCCNC(=N)N)C(=O)N[C@@H](CCCCN)C(=O)N[C@@H](CO)C(=O)N[C@H](C(=O)NCC(=O)NCC(=O)N[C@@H](CCCCN)C(=O)N[C@@H](C)C(N)=O)[C@@H](C)O)[C@@H](C)O)[C@@H](C)O [H3KN4] | very low levels of methylation were detected; also recorded: significantly reduced | < 5 | poorly catalyzed traces | poorly catalyzed traces; also recorded: only traces of H3KO4me and H3KN4me observed | inactive | > 100 |  |  |  | 
C[C@H](N)C(=O)N[C@@H](CCCNC(=N)N)C(=O)N[C@H](C(=O)N[C@@H](COCCN)C(=O)N[C@@H](CCC(N)=O)C(=O)N[C@H](C(=O)N[C@@H](C)C(=O)N[C@@H](CCCNC(=N)N)C(=O)N[C@@H](CCCCN)C(=O)N[C@@H](CO)C(=O)N[C@H](C(=O)NCC(=O)NCC(=O)N[C@@H](CCCCN)C(=O)N[C@@H](C)C(N)=O)[C@@H](C)O)[C@@H](C)O)[C@@H](C)O [H3KO4] |  | < 5 |  |  |  | 38.9 |  |  |  | 
GGAKRHRK^20VLRDNIQ [H4K20, native peptide fragment 13–27 of H4] |  |  |  |  |  |  | 86.8 | 104 ± 25.3 | 0.009 ± 0.00183 | H4K20 > H4KC20 > H4KN20 > H4KO20
